pKi: −log10 of the molar value. Where two headings read alike, the source gives them in different places. Residues, ends and D or L forms follow the SMILES beside them.
Assays:
[1] = Stability in rat intestinal fluid (Kessler 2008, 2009); type: in vitro ADME; details: ileal vs duodenal fluid
Experimental: According to the present invention, there are additional reasons why the distal jejunum, ileum, cecum and proximal colon are the preferred targets for a GCCR agonist. […] ST peptides are stable in the stomach but are rapidly degraded in the upper intestine. […] However, linaclotide is degraded rapidly in the duodenum. In intestinal fluids from both mouse, rat and humans the peptide loses its C-terminal tyrosine and forms an active metabolite. The half life for linaclotide is 3 minutes in rat intestinal fluid and 1 minute in human intestinal fluid. This metabolite is also rapidly degraded, first by reductases and then by proteases. The half life for the metabolite is about 5 minutes in rat intestinal fluid, and 3 minutes in human intestinal fluid. It is not detectable after 60 minutes in rat intestinal fluid, and after 18 minutes in human intestinal fluid (Kessler et al., 2009; Kessler et al., 2008). Thus, if released in the stomach or duodenum, an ST peptide analogue such as linaclotide will be active only in the duodenum. It is likely that an uroguanylin analogue such as plecanatide is degraded even more rapidly and therefore has an even shorter activity time.
This correlates with the free thiol concentrations in these locations and the activity of the Glutathione Reductase/Glutareduxin system activities in these locations.

[2] = cited from earlier work
[3] = cited from earlier work; remark: listed apart in the source
[4] = human intestinal fluid; cited from earlier work
[5] = Mouse intestinal secretion assay (suckling mouse assay); type: in vivo; design: key to Mouse intestinal secretion assay (suckling mouse): 1+ (lowest activity/potency); ++: Results are graded from 1+ (lowest activity/potency) to 5+ (highest activity/potency); +++: Results are graded from 1+ (lowest activity/potency) to 5+ (highest activity/potency); ++++: Results are graded from 1+ (lowest activity/potency) to 5+ (highest activity/potency); +++++: 5+ (highest activity/potency); details: for Mouse intestinal secretion assay (suckling mouse): graded activity/potency
Experimental: A relevant disease model is the suckling mouse model in which STa (5-18) is deposited into the stomach of 3-4 day old mice, and the accumulation of fluid in their intestines is determined gravimetrically (Parkinson et al., 1994). All GCC peptides were formulated to the desired concentration in Dulbecco's PBS (1×, No Ca++, no Mg++) containing […] immediately prior to dosing. Proteinase inhibitors were prepared as stock solutions in PBS and added to dosing solutions by serial dilution, as needed. The dosing solution (50 μL) was delivered into the stomachs of 2-4 day old mice (3 per dosing group) using a plastic tube attached to the needle of a 1 mL tuberculin syringe. After 3 hours, the animals were sacrificed and dissected to determine the individual weights of the intestines and the rest of the carcass, respectively.

[6] = 12 weeks treatment period; cited from earlier work
GCC [7] = biological target: T1, GCC (Rattus norvegicus, UniProt P23897); design: ligated intestinal loops from Sprague Dawley and Wistar rats; host or cells: rat jejunal and ileal loops in vivo; details: ileum relative to jejunum; cited from earlier work
T1 sequence (P23897 23-1072): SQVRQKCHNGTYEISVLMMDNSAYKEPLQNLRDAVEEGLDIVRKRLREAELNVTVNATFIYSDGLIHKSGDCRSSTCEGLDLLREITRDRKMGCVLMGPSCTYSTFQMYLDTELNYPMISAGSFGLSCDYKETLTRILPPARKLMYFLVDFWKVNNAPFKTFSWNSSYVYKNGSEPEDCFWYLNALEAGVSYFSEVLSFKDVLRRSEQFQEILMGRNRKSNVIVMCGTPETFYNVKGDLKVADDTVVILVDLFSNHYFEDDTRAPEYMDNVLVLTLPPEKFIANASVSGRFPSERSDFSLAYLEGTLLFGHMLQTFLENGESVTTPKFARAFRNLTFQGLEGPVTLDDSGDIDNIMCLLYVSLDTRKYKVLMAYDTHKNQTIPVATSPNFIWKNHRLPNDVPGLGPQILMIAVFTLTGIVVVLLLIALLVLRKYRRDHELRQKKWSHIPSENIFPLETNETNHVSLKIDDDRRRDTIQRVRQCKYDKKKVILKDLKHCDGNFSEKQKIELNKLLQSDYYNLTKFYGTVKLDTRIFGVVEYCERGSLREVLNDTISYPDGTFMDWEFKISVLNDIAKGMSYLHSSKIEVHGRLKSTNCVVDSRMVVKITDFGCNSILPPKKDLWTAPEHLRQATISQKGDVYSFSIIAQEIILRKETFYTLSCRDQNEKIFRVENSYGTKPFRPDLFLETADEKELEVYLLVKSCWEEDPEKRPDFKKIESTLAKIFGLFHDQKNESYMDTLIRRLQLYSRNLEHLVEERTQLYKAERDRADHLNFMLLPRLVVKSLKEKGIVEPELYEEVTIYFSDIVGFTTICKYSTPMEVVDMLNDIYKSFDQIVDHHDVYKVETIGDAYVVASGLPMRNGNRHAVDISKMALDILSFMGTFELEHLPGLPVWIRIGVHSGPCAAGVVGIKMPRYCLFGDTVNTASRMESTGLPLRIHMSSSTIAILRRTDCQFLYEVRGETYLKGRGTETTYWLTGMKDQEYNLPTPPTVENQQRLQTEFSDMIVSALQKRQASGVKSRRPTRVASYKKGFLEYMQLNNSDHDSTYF

GCC [8] = biological target: T1, GCC; design: GCC expressed in the duodenum, cecum and colon; host or cells: intestinal tissue (duodenum, cecum, colon); details: GCC expressed in the duodenum, cecum and colon; read-out: affinity (Ki) for GCC; cited from earlier work
GCC [9] = details: GCC expressed in the jejunum and cecum of the calf; cited from earlier work
GCC [10] = biological target: T2, GCC (Homo sapiens, UniProt P25092); details: read-out: affinity for the interaction with GCC, cited from earlier work
T2 construct: human small intestine (n=20) and colon (n=24) specimens; host or cells: human small intestine and colon specimens
T2 sequence (P25092 24-1073): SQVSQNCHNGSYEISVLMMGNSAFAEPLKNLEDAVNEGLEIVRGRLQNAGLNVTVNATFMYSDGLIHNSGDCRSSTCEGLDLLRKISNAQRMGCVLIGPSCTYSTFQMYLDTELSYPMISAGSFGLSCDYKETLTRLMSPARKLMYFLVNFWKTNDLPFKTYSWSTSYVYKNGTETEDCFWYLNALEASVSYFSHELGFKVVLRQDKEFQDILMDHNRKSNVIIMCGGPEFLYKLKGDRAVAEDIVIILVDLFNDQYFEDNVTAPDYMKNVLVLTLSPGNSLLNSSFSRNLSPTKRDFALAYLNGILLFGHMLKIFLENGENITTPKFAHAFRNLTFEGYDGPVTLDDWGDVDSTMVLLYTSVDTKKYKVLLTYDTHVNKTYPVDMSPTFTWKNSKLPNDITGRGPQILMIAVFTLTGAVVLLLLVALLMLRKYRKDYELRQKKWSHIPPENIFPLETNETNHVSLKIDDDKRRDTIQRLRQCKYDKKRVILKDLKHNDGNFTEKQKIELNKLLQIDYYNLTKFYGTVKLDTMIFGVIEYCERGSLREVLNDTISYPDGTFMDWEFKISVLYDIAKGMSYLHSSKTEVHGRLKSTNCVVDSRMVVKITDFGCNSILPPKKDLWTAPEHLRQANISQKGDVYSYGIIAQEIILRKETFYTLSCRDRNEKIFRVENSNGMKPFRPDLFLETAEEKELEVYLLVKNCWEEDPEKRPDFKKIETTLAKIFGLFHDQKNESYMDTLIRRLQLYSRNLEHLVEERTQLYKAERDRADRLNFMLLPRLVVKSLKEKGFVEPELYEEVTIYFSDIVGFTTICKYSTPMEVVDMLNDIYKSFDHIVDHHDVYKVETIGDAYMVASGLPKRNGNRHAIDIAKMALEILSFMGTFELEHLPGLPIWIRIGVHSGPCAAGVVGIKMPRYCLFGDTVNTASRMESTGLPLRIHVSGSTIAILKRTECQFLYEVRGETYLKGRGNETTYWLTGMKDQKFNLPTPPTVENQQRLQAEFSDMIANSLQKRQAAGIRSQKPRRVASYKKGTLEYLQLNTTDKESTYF

In the case of C[C@@H]1NC(=O)[C@@H]2CCCN2C(=O)[C@H](CC(N)=O)NC(=O)[C@@H]2CSSC[C@H](N)C(=O)N[C@H]3CSSC[C@H](NC1=O)C(=O)N[C@@H]([C@@H](C)O)C(=O)NCC(=O)N[C@H](C(=O)N[C@@H](Cc1ccc(O)cc1)C(=O)O)CSSC[C@H](NC(=O)[C@H](Cc1ccc(O)cc1)NC(=O)[C@H](CCC(=O)O)NC3=O)C(=O)N2 [Linaclotide, H2N Cys Cys Glu Tyr Cys Cys Asn Pro Ala Cys Thr Gly Cys Tyr COOH] (HELM PEPTIDE1{C.C.E.Y.C.C.N.P.A.C.T.G.C.Y}$PEPTIDE1,PEPTIDE1,1:R3-6:R3|PEPTIDE1,PEPTIDE1,2:R3-10:R3|PEPTIDE1,PEPTIDE1,5:R3-13:R3$$$V2.0), the “more stable in ileal intestinal fluid compared to the duodenum” value [1] is listed as “up to 100 ×”, the “stable in simulated gastric fluid for” value [2] is listed as “up to 3 hours” and the half life ([3]; rat duodenal fluid) is listed as “about 0.44 minutes”. The half life ([3]; rat ileal fluid) was “about 30 minutes”, the half life ([3]; rat intestinal fluid) was 3 min and the half life ([3]; rat jejunal fluid) was 0.36 min. The half life [4] was 1 min, the “activity in the mouse intestinal secretion assay” value ([5]; FIG. 26, compared to STa) was “lower activity” and the “Mouse intestinal secretion assay (suckling mouse)” value [5] was “+++”. The “patients achieving primary efficacy endpoint (three or more CSBMs per week and increase of at least one CSBM per week over baseline for at least nine of 12 weeks)” value [6] was 21%.
For “H2N Asn Thr Phe Tyr Cys Cys Glu Leu Cys Cys Asn Pro Ala Cys Ala Gly Cys Tyr COOH [STa(1-18)]”, the “duration of response in intestinal loops” value (GCC [7]) is given as “significantly longer duration of response in the Ileum relative to the jejunum”, the pKi (GCC [8]) is given as 8.40 to 9.00 and the “decrease in the affinity for its receptor” value (GCC [9]) is given as 2 log. The “Mouse intestinal secretion assay (suckling mouse)” value [5] was “++++”, the pKi (GCC [10]; human colon specimens (n=24)) was 8.92 and the pKi (GCC [10]; human small intestine specimens (n=20)) was 8.72.
